Results published in patent US8163804B2 (priority 2005, dated 2012).
Where two headings read alike, the source gives them in different places.

Columns and labels:
[1] = tested on: Oriental Fruit Moth (Grapholita molesta); experiment: Control test on oriental fruit moth of pear, spray, rate of infected fruit after 40 days; format: in vivo; details: 50 ppm; 40 days after spraying
Protocol: (§1) Control Test on Oriental Fruit Moth (Grapholita molesta) and Scab (Venturia nashicola) of Pear
(§2) A liquid chemical which was prepared to the prescribed concentration was sufficiently sprayed on 17-year-old pears (cultivar: Hosui) (early June). After 40 days from spraying, the number of infected fruits due to Grapholita molesta was examined for all fruit in the plot, and the rate of infected fruit was calculated. Furthermore, after 14 days from spraying, infection of Venturia nashicola was examined by the degrees for optional 200 leaves in the plot and the severity index was calculated according to the following equation. Severity index=Z(number of infected leaves by the degrees×index)×100/(number of examined leaves×5)

[2] = tested on: Sheath Blight (Rhizoctonia solani); experiment: Control test on sheath blight of paddy rice, powder spray, rate of infected stumps after 30 days; format: in vivo; details: 20 gai/10a; 30 days after spraying
Description: (§3) Control Test on Common Straight Swift Butterfly (Parnara guttata) and Sheath Blight (Rhizoctonia solani) of Paddy Rice
(§4) A powder of a prescribed amount was sprayed on rice (cultivar: koshihikari) after 70 days from the transplantation (middle of May) Leaves on which Parnara guttata was parasitic before spraying were eliminated. After 20 days from spraying, the number of insects was examined for 100 stumps in each plot. Furthermore, 7 days before spraying, Rhizoctonia solani cultured on a bran medium was inoculated into the base of the plant. After 30 days from spraying, the number of infected stumps was examined for 100 stumps in each plot and the rate of infected stumps was calculated. In the Table, gai represents the amount of active ingredients (g).

[3] = tested on: Tiger Moth (Trichoplusia ni); experiment: Insecticidal test on tiger moth, cabbage leaf dip, mortality after 6 days; format: in vivo; details: 0.5 ppm; 6 days after treatment
Protocol: Insecticidal Test on Tiger Moth (Trichoplusia ni)
Cut leaves of cabbages (cultivar: shiki-kaku) were immersed in a liquid chemical which was diluted and prepared to the prescribed concentration for 30 seconds, air-dried, and then put into a plastic vessel having a diameter of 9 cm. Each of 10 second-stage insects of Trichoplusia ni was inoculated and the resulting vessel was allowed to stand in an isothermal chamber maintained at 25 degree centigrade. After 6 days from the treatment, the number of surviving insects was examined and the mortality was calculated (two replications of 10 insects per plot).

[4] = tested on: Scab (Venturia nashicola); experiment: Control test on scab of pear, spray, severity index after 14 days; format: in vivo; details: 50 ppm; 14 days after spraying
Protocol: as §1, §2

[5] = tested on: Powdery Mildew (Sphaerotheca fuliginea); experiment: Control test on powdery mildew of cucumbers, spray, control value from severity index; format: in vivo; details: 10 ppm
Protocol: (§5) Insecticidal Test on Cucumber Moth (Diaphania indica) and Control Test on Powdery Mildew (Sphaerotheca fuliginea) of Cucumbers
(§6) A liquid chemical which was prepared to the prescribed concentration was sufficiently sprayed on cucumbers (cultivar: sagami-hanpaku) cultured in a greenhouse. After 7 days from spraying, leaves were cut off and put into a plastic cup (diameter: 10 cm, height: 10 cm) along with 5 of second-stage larvae of Diaphania indica, and the mortality was examined 4 days thereafter. Furthermore, 1 day after spraying, the leaves of cucumbers which were previously arranged to be infected by pathogen were uniformly wiped with Sphaerotheca fuliginea thereon using a paintbrush for inoculation and examined after 10 days thereafter. The area occupied by lesion per leaf of cucumber was examined in accordance with the following index, and the control value was calculated from the average severity index of each plot according to the following equation (two replications).
Severity Index • 0: No lesion • 1: Lesion area was not more than 5% • 2: Lesion area was from 6 to 25% • 3: Lesion area was from 26 to 50% • 4: Lesion area was not less than 51% Control Value=(1−average severity in the treated plot/average severity in the untreated plot)×100

[6] = tested on: Small Brown Planthopper (Laodelphax striatellus); experiment: Insecticidal test on small brown planthopper, sprayed rice seedlings, mortality after 6 days; format: in vivo; details: 3 ppm, sprayed rice seedlings, 6 days after treatment
Protocol: Insecticidal Test on Small Brown Planthopper (Laodelphax striatellus)
A liquid chemical which was diluted and prepared to the prescribed concentration was sprayed on rice seedlings (cultivar: koshihikari), air-dried, and then 10 three-stage insects of Laodelphax striatellus were put into a glass test tube having a diameter of 3 cm and a height of 10 cm along with the seedlings. The test tube was cotton plugged. After 6 days from the treatment, the number of surviving insects was examined and the mortality was calculated (two replications of 10 insects per plot).

[7] = tested on: 2-spotted Spider Mite (Tetranychus urticae); experiment: Insecticidal test on 2-spotted spider mite, kidney bean leaf disc with eggs, hatchability of larvae after 6 days; format: in vivo; details: 50 ppm; 6 days after spraying
Protocol: Insecticidal Test on 2-spotted Spider Mite (Tetranychus urticae)
A plastic cup having a diameter of 8 cm was filled with water and covered by a lid with a hole having a diameter of 1 cm. Absorbent cotton was put on the top of the lid and dropped into water from the lid such that the absorbent cotton was always in a wet state due to a capillary phenomenon. A leaf disc having a diameter of 2 cm was prepared with primary leaves of kidney beans (cultivar: Green top) and placed on the aforementioned absorbent cotton. 4 adult female insects of Tetranychus urticae were inoculated thereon. Next day, the adult female insects were removed, and then the number of insect egg was examined. A liquid chemical which was prepared to the prescribed concentration was sprayed by using a vertical sprayer. After spraying, the resulting cup was allowed to stand in an isothermal chamber maintained at 25 degree centigrade. After 6 days from spraying, the number of hatched larvae that survived on the leaf disc was examined and the hatchability of larvae was calculated (two replications of one concentration per chemical).

[8] = tested on: Resistant Cotton Melon Aphid (Aphis gossypii); format: in vivo; details: 3 ppm, foliar spray on cucumber, 5 days after spraying
[9] = tested on: Clubroot (Plasmodiophora brassicae); experiment: Control test on clubroot of cabbage, soil treatment, control value after 60 days; format: in vivo; details: 100 gai/10a; 60 days after treatment
Protocol: (§7) Control Test on Turnip Moth (Agrotis segetum) and Clubroot (Plasmodiophora brassicae) of Cabbage due to Soil Treatment
(§8) A powder in a prescribed amount was mixed to soil and cabbages (cultivar: shiki-kaku) cultured on a cell medium were planted out. After 7 days from the treatment, the number of infected stumps due to Agrotis segetum was examined and the rate of infected stumps was calculated. Furthermore, after 60 days from the treatment, stumps were picked out, and lesion formation of Plasmodiophora brassicase was examined according to the degrees of severity. The control value was calculated from the average severity index of each plot according to the following equation. In the Table, gai represents the amount of active ingredients (g).
Severity Index • 0: No clubroot attached • 1: Clubroot was attached at a portion of from 1 to 25% of the whole root • 2: Clubroot was attached at a portion of from 25 to 50% of the whole root • 3: Clubroot was attached at a portion of from 50 to 75% of the whole root • 4: Clubroot was attached at a portion of from 75% or more of the whole root Control Value=(1−average severity in the treated plot/average severity in the untreated plot)×100

[10] = tested on: Rice Blast (Pyricularia oryzae); format: in vivo; details: in vivo
[11] = tested on: Turnip Moth (Agrotis segetum); experiment: Control test on turnip moth of cabbage, soil treatment, rate of infected stumps after 7 days; format: in vivo; details: 100 gai/10a; 7 days after treatment
Protocol: as §7, §8

[12] = tested on: Common Straight Swift Butterfly (Parnara guttata); experiment: Control test on common straight swift butterfly of paddy rice, powder spray, number of insects after 20 days (Test Example 9); format: in vivo; details: 20 gai/10a; 20 days after spraying
Description: as §3, §4

[13] = tested on: Common Straight Swift Butterfly (Parnara guttata); experiment: Control test on common straight swift butterfly of paddy rice, powder spray, number of insects after 20 days (Test Example 8); format: in vivo; details: 20 gai/10a; 20 days after spraying
[14] = tested on: Green Peach Aphid (Myzus persicae); format: in vivo; details: 3 ppm, foliar spray on eggplant, 5 days after spraying
[15] = tested on: Cucumber Moth (Diaphania indica); experiment: Insecticidal test on cucumber moth, sprayed cucumber leaves, mortality; format: in vivo; details: 10 ppm
Protocol: as §5, §6

[16] = tested on: Rice Leafroller (Cnaphalocrocis medinalis); experiment: Control test on rice leafroller, nursery box application of paddy rice, infected leaf rate after 50 days; format: in vivo; details: 5 gai/box; 50 days after transplantation
Protocol: (§9) Control Test on Small Brown Planthopper (Laodelphax striatellus) and Rice Leafroller (Cnaphalocrocis medinalis) on Nursery Box Application of Paddy Rice
(§10) Rice (cultivar: Nihonbare) cultured in a nursery box was treated with 50 g of a granule formulation per box, and then transplanted to the rice field. For the control effect against Laodelphax striatellus, the number of parasitic insects was examined for 30 stumps per plot after 40 days and 60 days from the transplantation. In addition, for the control effect against Cnaphalocrocis medinalis, the number of infected leaves was examined for 100 stumps per plot after 50 days from the transplantation, and the infected leaf rate was calculated. In the Table, gai represents the amount of active ingredients (g).

[17] = tested on: Rice Blast (Pyricularia oryzae); format: in vivo; details: in vivo; remark: listed apart in the source
[18] = tested on: Rice Striped Stem Borer (Chilo suppressalis); details: 5 gai/box
[19] = tested on: Small Brown Planthopper (Laodelphax striatellus); experiment: Control test on small brown planthopper, nursery box application of paddy rice, number of parasitic insects after 40 and 60 days; format: in vivo; details: 5 gai/box
Protocol: as §9, §10

Cc1cc(C(F)(C(F)(F)F)C(F)(F)F)cc(C)c1NC(=O)c1cccc(N(C)C(=O)c2ccccc2)c1F [Compound 1208]
Grapholita molesta Infected fruit rate (%) [1]: 1.9% | Rate of infected stumps (%) [2]: 99% | Mortality (%) [3]: 75% | Venturia nashicola Severity index [4]: 52.4 | Sphaerotheca fuliginea Control value [5]: 0 | Mortality (%) [6]: 10% | Hatchability of larvae (%) [7]: 78% | Control rate (%) [8]: 18% | Plasmodiophora brassicae Control value [9]: 9 | Pyricularia oryzae Control value [10]: 5 | Agrotis segetum Infected stump rate (%) [11]: 2.8% | Number of insects (number/100 stumps) [12]: 1 number/100 stumps | Number (insects/100 stumps) [13]: 1 insects/100 stumps | Control rate (%) [14]: 20% | Diaphania indica Mortality (%) [15]: 95%

Cc1cc(C(F)(C(F)(F)F)C(F)(F)F)cc(C)c1NC(=O)c1cccc(N(C)C(=O)c2cccnc2Cl)c1F [Compound 1245]
Grapholita molesta Infected fruit rate (%) [1]: 2.8% | Cnaphalocrocis medinalis Infected leaf rate (%) [16]: 0.32% | Rate of infected stumps (%) [2]: 98% | Mortality (%) [3]: 70% | Venturia nashicola Severity index [4]: 51.6 | Sphaerotheca fuliginea Control value [5]: 0 | Pyricularia oryzae Control value [17]: 0 | Chilo suppressalis Mortality (%) [18]: 95% | Mortality (%) [6]: 5% | Hatchability of larvae (%) [7]: 85% | Control rate (%) [8]: 15% | Plasmodiophora brassicae Control value [9]: 6 | Pyricularia oryzae Control value [10]: 0 | Agrotis segetum Infected stump rate (%) [11]: 2.8% | Number of insects (number/100 stumps) [12]: 2 number/100 stumps | Number (insects/100 stumps) [13]: 2 insects/100 stumps | Control rate (%) [14]: 12% | Laodelphax striatellus Number of parasitic insects/30 stumps ([19]; 40 days): 82 insects/30 stumps | Laodelphax striatellus Number of parasitic insects/30 stumps ([19]; 60 days): 140 insects/30 stumps | Diaphania indica Mortality (%) [15]: 90%

O=C(Nc1cccc(C(=O)Nc2c(Br)cc(C(F)(C(F)(F)F)C(F)(F)F)cc2SC(F)(F)F)c1)c1ccccc1 [Compound 210]
Grapholita molesta Infected fruit rate (%) [1]: 1.7% | Rate of infected stumps (%) [2]: 98% | Mortality (%) [3]: 70% | Venturia nashicola Severity index [4]: 50.6 | Sphaerotheca fuliginea Control value [5]: 0 | Mortality (%) [6]: 15% | Hatchability of larvae (%) [7]: 80% | Control rate (%) [8]: 12% | Plasmodiophora brassicae Control value [9]: 0 | Pyricularia oryzae Control value [10]: 3 | Agrotis segetum Infected stump rate (%) [11]: 2.8% | Number of insects (number/100 stumps) [12]: 1 number/100 stumps | Number (insects/100 stumps) [13]: 1 insects/100 stumps | Control rate (%) [14]: 7% | Diaphania indica Mortality (%) [15]: 95%

Cc1cc(C(F)(C(F)(F)F)C(F)(F)F)cc(C)c1NC(=O)c1cccc(NC(=O)c2ccccc2)c1F [Compound No. 601, N-(2,6-dimethyl-4-heptafluoroisopropyl)phenyl 3-(benzoylamino)-2-fluorobenzamide]
Grapholita molesta Infected fruit rate (%) [1]: 2.3% | Rate of infected stumps (%) [2]: 96% | Venturia nashicola Severity index [4]: 53.0 | Sphaerotheca fuliginea Control value [5]: 0 | Plasmodiophora brassicae Control value [9]: 0 | Pyricularia oryzae Control value [10]: 7 | Agrotis segetum Infected stump rate (%) [11]: 2.8% | Number of insects (number/100 stumps) [12]: 2 number/100 stumps | Number (insects/100 stumps) [13]: 1 insects/100 stumps | Diaphania indica Mortality (%) [15]: 95%
